Measurements published in US4816447A, “Anti-viral guanine compounds” (priority 1984, dated 1989).

Key:
[1] = system: HSV1; experiment: In vitro assay, viral cytopathology of HSV1 in primary rabbit kidney cells; type: cell-based; settings: Human alphaherpesvirus 1; days 5 and 7; read-out: Min. Effective Dose against HSV1
[2] = system: HSV2; experiment: In vitro assay, viral cytopathology of HSV2 in primary rabbit kidney cells; type: cell-based; settings: Human alphaherpesvirus 2; days 5 and 7; read-out: Min. Effective Dose against HSV2
[3] = system: primary rabbit kidney cell cultures; experiment: Toxicity controls in primary rabbit kidney cell cultures; type: cell-based; settings: at 100 μg/ml
[4] = system: HSV1 (Strain Schooler); experiment: In vivo assay, intraperitoneal HSV1 infection of mice, subcutaneous treatment (Table IV); parameters: species or system HSV1; ICR/Ha mice; settings: for Percent Survival: 15 days
Protocol: Twenty gram ICR/Ha mice were infected with approximately 100 lethal doses (100LD50) of HSV1 (Strain Schooler) by the intraperitoneal route. Groups of 10 infected animals were treated twice daily for four days starting immediately after infection by subcutaneous injection at final daily doses of 50, 12.5, 3.1, 0.8, 0.2, 0.05 and 0.0125 mg/kg of potassium 9-(1,3-dihydroxy-2-propoxymethyl)guanine cyclic monophosphate. The mice were observed daily for 15 days at the same time each day and the day of death recorded for each animal.

[5] = system: equine herpes virus; experiment: Antiviral activity against equine herpes virus; type: cell-based; settings: data not shown, read-out: ED50 (the source's name)
[6] = system: feline rhinotracheitis virus; experiment: Antiviral activity against feline rhinotracheitis virus; type: cell-based; settings: data not shown, read-out: ED50 (the source's name)
[7] = system: influenza A; experiment: RNA virus replication, influenza A; type: cell-based
[8] = system: vesicular stomatitis; type: cell-based
[9] = system: polio; type: cell-based
[10] = system: HSV-1; experiment: Intracerebral HSV-1 infection in weanling mice, subcutaneous treatment (Table VI); type: in vivo, HSV-1; ICR/Ha weanling mice
[11] = system: HSV-1; experiment: Orofacial HSV-1 infection of hairless mice, oral or topical treatment (Table VI); type: in vivo, HSV-1; HRS mice; settings: for minimal effective dose: Human alphaherpesvirus 1, oral treatment, read-out: Min. Effective Dose; for minimal effective dose / Min. Effective Dose: orofacial infection; for Min. Effective Dose: topical treatment
[12] = system: HSV-1 (383R1); experiment: Protection of mice against intraperitoneal infection with HSV-1 (383R1) (Table IX); type: in vivo, HSV-1; mice; settings: for Mean Survival Time (± SD): HSV-1 (383R1), s.c. twice daily, 4 days; for efficacy against HSV-1 (383R1) relative to wild type HSV-1: mouse, in vivo
Protocol: 1. […] Groups of mice infected intraperitoneally with increasing doses of HSV-1 or HSV-1 (383R1) were treated twice daily subcutaneously for 4 days with either the Cyclic Monophosphate or the compound of Formula II. Mean survival times of treated mice were compared.

[13] = target: thymidine kinase, isolated from HSV1-infected HeLa cells (Human herpesvirus 1, UniProt P0DTH5); experiment: Competition between thymidine and acycloguanosine or compound of formula II for phosphorylation by the virus-induced thymidine kinase; type: biochemical; settings: for Percent monophosphate: 1200 min
thymidine kinase, isolated from HSV1-infected HeLa cells, sequence (P0DTH5 whole entry): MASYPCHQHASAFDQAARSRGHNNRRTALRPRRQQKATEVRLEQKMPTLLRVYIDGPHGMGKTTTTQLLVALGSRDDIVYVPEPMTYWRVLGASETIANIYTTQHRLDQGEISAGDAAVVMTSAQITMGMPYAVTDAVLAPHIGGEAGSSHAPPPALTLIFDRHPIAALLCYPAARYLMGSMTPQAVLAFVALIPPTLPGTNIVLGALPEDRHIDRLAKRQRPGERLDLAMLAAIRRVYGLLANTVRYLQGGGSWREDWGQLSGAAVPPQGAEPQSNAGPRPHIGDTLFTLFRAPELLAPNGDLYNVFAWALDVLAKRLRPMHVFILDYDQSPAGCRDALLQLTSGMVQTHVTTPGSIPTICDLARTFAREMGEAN

[14] = target: HSV1-induced thymidine kinase (Human alphaherpesvirus 1 strain 17, UniProt P0DTH5); experiment: Kinetic parameters with purified viral thymidine kinase; type: biochemical; settings: compound of formula II to acycloguanosine
HSV1-induced thymidine kinase, sequence (P0DTH5 whole entry): as above

[15] = system: Cytomegalovirus; experiment: Cytomegalovirus plaque reduction assay on human MRC-5 monolayers; type: cell-based, Cytomegalovirus (Towne Strain); human MRC-5 cells
Protocol: The compound of formula II was effective in suppressing cytomegalovirus plaque formation on MRC-5 cell monolayers using 0.1 to 0.6 μg/ml.
^d Plaque reduction assay on human MRC5 cell monolayers

[16] = system: HSV-1 (383R1); type: cell-based; settings: HSV-1 (383R1) vs wild type
[17] = system: HSV-1 (383R1); experiment: Phosphorylation capacity of HSV-1 (383R1); type: biochemical
[18] = system: Herpes simplex virus type 2 (Strain Curtis); experiment: Vaginal Herpes simplex virus type 2 infection in mice, oral treatment (Table XII); type: in vivo, Herpes simplex virus type 2; ICR/Ha female mice; settings: for Percent Survival: at 19 days; for number of days to infection vs placebo: 50 mg/kg and 12.5 mg/kg
Protocol: Groups of 10 animals were treated twice daily for ten days by oral gavage using acycloquanosine or the compound of formula II at final daily doses of 50, 12.5, 3.1, 0.8 or 0.2 mg/kg starting immediately following infection. The average number of days to infection and the average days of survival were determined for each group and compared to an infected, placebo-treated group.

[19] = system: HSV-1 PAA ®1; settings: HSV-1 PAA R1

Nc1nc2c(ncn2COC2COP(=O)(O)OC2)c(=O)[nH]1 (stereo not shown) [Cyclic Monophosphate, Potassium 9-(1,3-dihydroxy-2-propoxymethyl)guanine cyclic monophosphate]
minimal effective concentration [1]: 12.5 to 25 µg/mL | minimal effective concentration [2]: 50 to 100 µg/mL | Toxicity [3]: Not tox. | Ave. Survival Time ([4]; Expt. 1, 0.2 mg/kg/day s.c.): 13.5 days | Percent Survival ([4]; Expt. 1, 0.2 mg/kg/day s.c.): 70% | Ave. Survival Time ([4]; Expt. 1, 0.8 mg/kg/day s.c.): 10.5 days | Percent Survival ([4]; Expt. 1, 0.8 mg/kg/day s.c.): 40% | Ave. Survival Time ([4]; Expt. 1, 3.1 mg/kg/day s.c.): 10.7 days | Percent Survival ([4]; Expt. 1, 3.1 mg/kg/day s.c.): 20% | Ave. Survival Time ([4]; Expt. 1, 12.5 mg/kg/day s.c.): 19.5 days | Percent Survival ([4]; Expt. 1, 12.5 mg/kg/day s.c.): 100% | Ave. Survival Time ([4]; Expt. 1, 50 mg/kg/day s.c.): 19.5 days | Percent Survival ([4]; Expt. 1, 50 mg/kg/day s.c.): 100% | Ave. Survival Time ([4]; Expt. 2, 0.0125 mg/kg/day s.c.): 6.3 days | Percent Survival ([4]; Expt. 2, 0.0125 mg/kg/day s.c.): 10% | Ave. Survival Time ([4]; Expt. 2, 0.05 mg/kg/day s.c.): 6.0 days | Percent Survival ([4]; Expt. 2, 0.05 mg/kg/day s.c.): 0% | Ave. Survival Time ([4]; Expt. 2, 0.2 mg/kg/day s.c.): 8.3 days | Percent Survival ([4]; Expt. 2, 0.2 mg/kg/day s.c.): 30% | Ave. Survival Time ([4]; Expt. 2, 0.8 mg/kg/day s.c.): 7.4 days | Percent Survival ([4]; Expt. 2, 0.8 mg/kg/day s.c.): 0% | Ave. Survival Time ([4]; Expt. 2, 3.1 mg/kg/day s.c.): 11.5 days | Percent Survival ([4]; Expt. 2, 3.1 mg/kg/day s.c.): 50% | Ave. Survival Time ([4]; Expt. 2, 12.5 mg/kg/day s.c.): 15.0 days | Percent Survival ([4]; Expt. 2, 12.5 mg/kg/day s.c.): 60% | EC50 [5]: ~1 µg/mL | EC50 [6]: ~1 µg/mL | effect on RNA virus replication [7]: not effective | effect on RNA virus replication [8]: not effective | effect on RNA virus replication [9]: not effective | minimal effective dose ([10]; Human alphaherpesvirus 1, sc, intracerebral infection, subcutaneous treatment, read-out: Min. Effective Dose): 0.8 mg/kg/day | efficacy relative to acyclovir by minimum effective dose ([10]; intracerebral): consistently more efficacious than acyclovir | minimal effective dose [11]: 3.1 mg/kg/day | efficacy relative to acyclovir by minimum effective dose ([11]; orofacial): consistently more efficacious than acyclovir | Min. Effective Dose [11]: 0.06% | Mean Survival Time (± SD) [12]: 13.42 (0.82) | efficacy against HSV-1 (383R1) relative to wild type HSV-1 [12]: equally effective

Nc1nc2c(ncn2COC(CO)CO)c(=O)[nH]1 [Compound of Formula II, 9-(1,3-Dihydroxy-2-propoxymethyl)guanine]
phosphorylation in presence of a large excess of thymidine ([13]; large excess of thymidine): is phosphorylated by the viral thymidine kinase even in the presence of a large excess of thymidine | Percent monophosphate ([13]; plus 2.5 mM thymidine): 23% | Percent monophosphate ([13]; without thymidine): 93% | relative efficiency as substrate (Vmax /Km) vs acycloguanosine [14]: 30 to 1 | calculated average relative potency to acycloguanosine (95% CI) [15]: 28.6 | less susceptible than wild type [16]: approximately 100 fold | phosphorylation by HSV-1 (383R1) [17]: incapable of phosphorylation | Mean Survival Time (± SD) [12]: 9.05 (0.80) | efficacy against HSV-1 (383R1) relative to wild type HSV-1 [12]: significantly lower | Avg. Survival Time ([18]; 0.2 mg/kg/day oral): 12.1 days | Percent Survival ([18]; 0.2 mg/kg/day oral): 30% | Avg. Survival Time ([18]; 0.8 mg/kg/day oral): 15.1 days | Percent Survival ([18]; 0.8 mg/kg/day oral): 40% | Avg. Survival Time ([18]; 3.1 mg/kg/day oral): 19.1 days | Percent Survival ([18]; 3.1 mg/kg/day oral): 75% | Avg. Survival Time ([18]; 12.5 mg/kg/day oral): 24.7 days | Percent Survival ([18]; 12.5 mg/kg/day oral): 100% | number of days to infection vs placebo [18]: statistically significant increases in the number of days to infection | signs of herpetic infection ([18]; 50 mg/kg, duration of the test): remained free of signs of herpetic infection | Avg. Survival Time ([18]; 50 mg/kg/day oral): 24.7 days | Percent Survival ([18]; 50 mg/kg/day oral): 100% | survival time vs placebo ([18]; 50, 12.5, 3.1 and 0.8 mg/kg): statistically significant increase in survival time | survival rate vs placebo ([18]; 50, 12.5 and 3.1 mg/kg): statistically significantly increased | relative potency to acycloguanosine as measured by survival ([18]; statistically significant): 28.1 | relative potency to acycloguanosine as measured by time to infection ([18]; statistically significant): 4.14

Nc1nc2c(ncn2COCCO)c(=O)[nH]1 [Acycloguanosine, 9-(2-hydroxyethoxymethyl)guanine, reference compound]
minimal effective dose [11]: 12.5 mg/kg/day | Min. Effective Dose [11]: 0.25-1.0% | Avg. Survival Time ([18]; 0.2 mg/kg/day oral): 8.8 days | Percent Survival ([18]; 0.2 mg/kg/day oral): 0% | Percent Survival ([18]; 0.8 mg/kg/day oral): 10% | Percent Survival ([18]; 3.1 mg/kg/day oral): 20% | Avg. Survival Time ([18]; 12.5 mg/kg/day oral): 14.1 days | Percent Survival ([18]; 12.5 mg/kg/day oral): 40% | number of days to infection vs placebo [18]: statistically significant increases in the number of days to infection | Avg. Survival Time ([18]; 50 mg/kg/day oral): 17.6 days | Percent Survival ([18]; 50 mg/kg/day oral): 60% | survival time vs placebo ([18]; 50 and 12.5 mg/kg): similarly effective | survival vs placebo ([18]; only 50 mg/kg): statistically significant enhanced survival | Sensitivity (S) or Resistance (R) [19]: R
